Results from patent US9636336B2, “Aminoester derivatives” (CHIESI FARMACEUTICI S.p.A., priority 2015, dated 2017).
Read-outs that look alike come from different tables or passages of the source.

Assays:
[1] = system: smoking model of COPD in mice; details: cited from earlier work
COPD patients = details: cited from earlier work
[2] = target: Human M3 receptor membranes (Homo sapiens (Human), UniProt P20309); test: M3 Receptor radioligand binding assay; details: M3 Receptor radioligand binding assay; for Ki: Ki from IC50 by Cheng and Prusoff
Experimental: M3 Receptor Radioligand Binding Assay:
The assay is carried out in 96-well polypropylene plates in a volume of 250 μl. […] The final assay concentration of DMSO is 0.5% (v/v). The plates are sealed and incubated for 2 h at room temperature on an orbital shaker (slow speed). Membranes are harvested onto 96-well unifilter GF/C filter plates pre-treated with 0.5% polyethyleneimine (v/v), using a filter manifold, washed four times with 200 μl of assay buffer. The plates are dried before addition of 50 μl of microscint-0, sealed then read in a Trilux Microbeta scintillation counter. IC50 values are determined from competition curves using a non-linear curve fitting program. Ki values are calculated from IC50 values by the Cheng and Prusoff equation.

[3] = system: Cch-evoked bronchoconstriction in rats; test: Bronchospasm, percentage of inhibition (Cch-induced bronchoconstriction, duration of action); type: in vivo, Male CD Sprague Dawley rats; details: rat; for sub-maximal inhibition Dose: Dose producing about 80% (sub-maximal) inhibition of the bronchospasm after 1 h, intratracheal; for inhibition at 16 h: inhibition of bronchospasm 16 h after intratracheal administration of the sub-maximal inhibition dose
Experimental: Protocol of Bronchospasm—Percentage of Inhibition
Male CD Sprague Dawley rats (220-250 g) were purchased from Charles River Laboratories Italy (Calco, Lecco). Prior to use animals were acclimated for at least 5 days to the local vivarium conditions (room temperature: 20-24° C.; relative humidity: 40-70%), having free access to standard rat chow and softened tap water. All the procedures were performed in animal operating rooms according to ethical guidelines for the conduct of animal research (D. L.vo 116/92).
Treatment with Test Compounds
Animals were anaesthetised with Urethane (1.2 g/kg, i.p.) and a laryngoscope was moved forward into the mouth to visualize the trachea and guide the insertion of the tip of a custom made small diameter cannula directly into the trachea and located 1-2 mm above the bifurcation. Test compounds were dissolved in 100% dimethyl sulphoxide (DMSO) at 10^−2 M. The target concentration was obtained by dilution of the DMSO stock in saline. Test compounds were instilled locally into the trachea in a volume of 125 μl.
In order to assess the residual inhibitory activity of test compounds at 1-16 hours after their administration, rats were surgically prepared. In order to assess the Cch-induced bronchoconstriction in rats, the infusion of physiological solution was stopped and the bronchospastic agent injected into the jugular vein using the same cannula. Soon after washing the cannula with saline to ensure the complete administration of the bronchoconstrictor agent, the saline infusion was started again. Body temperature was kept constant at 37° C. by a heated blanket.
The trachea was cannulated and the lungs were ventilated artificially with a small animal constant volume ventilator (rodent ventilator mod. 7025, Ugo Basile, Comerio, Varese, Italy) at a frequency of 80 strokes/min and at a tidal volume of 2.5 ml/kg. To avoid spontaneous breathing, the animals were injected intravenously (i.v.) with pancuronium bromide (2 mg/kg). Bronchoconstriction was induced by the i.v. injection of Cch 50 μg/kg. In control experiments, repeated injections of this dose produced reproducible short-lasting (1-2 min duration) bronchospasms. Bronchoconstriction, quantified as a reduction of tidal volume, was evaluated according to the method described by Konzett & Roessler in Konzett H. and Roessler R., Versuchanornungzu untersuchungen ande bronchialmuskulatur. Arch. Exp. Path. Pharmak.; 195:71-74 (1940), which is incorporated herein by reference in its entirety.
Systemic blood pressure and changes in airway resistance were monitored with a digital pressure transducer connected to a bridge amplifier (PowerLab; Ugo Basile, Italy) and recorded using Chart 5 software (Ugo Basile, Italy).
After stabilization of artificial breathing and blood pressure, animals were injected (i.v.) with Cch every 3 min, until 3 stable and reproducible basal responses were obtained. […] The effect of test compounds was expressed as % inhibition of Cch-evoked bronchoconstriction in time-matched, vehicle-treated, animals (controls).

[4] = patients with severe disease, frequent exacerbations and mucus hypersecretion

Sequence of Human M3 receptor membranes (P20309 whole entry): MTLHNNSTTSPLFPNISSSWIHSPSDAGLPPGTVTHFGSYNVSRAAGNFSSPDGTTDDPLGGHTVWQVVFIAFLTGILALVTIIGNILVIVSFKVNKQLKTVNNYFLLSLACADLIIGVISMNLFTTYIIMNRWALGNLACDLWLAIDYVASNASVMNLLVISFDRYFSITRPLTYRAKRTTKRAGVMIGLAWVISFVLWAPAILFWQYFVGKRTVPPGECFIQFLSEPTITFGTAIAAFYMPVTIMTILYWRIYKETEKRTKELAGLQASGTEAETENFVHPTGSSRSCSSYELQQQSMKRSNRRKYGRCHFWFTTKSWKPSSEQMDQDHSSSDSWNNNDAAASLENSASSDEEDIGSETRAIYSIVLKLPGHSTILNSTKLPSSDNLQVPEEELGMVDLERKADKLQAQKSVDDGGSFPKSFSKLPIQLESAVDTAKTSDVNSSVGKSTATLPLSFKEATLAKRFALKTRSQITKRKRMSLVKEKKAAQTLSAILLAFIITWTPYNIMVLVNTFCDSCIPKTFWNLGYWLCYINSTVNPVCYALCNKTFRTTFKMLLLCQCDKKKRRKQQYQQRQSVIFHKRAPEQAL

Ki [2] [nM] | IC50 ([2]; read-out: M3 IC50) [nM] | SMILES | lung inflammation and emphysema [1] | reduction of numbers of neutrophils in sputum (COPD patients; COPD patients, oral, over 4 weeks) [%] | improvement of FEV 1 (COPD patients; [4]) | reduction of exacerbation (COPD patients; [4]) | IC50 ([2]; read-out: M3 IC50 activity) [nM] | sub-maximal inhibition Dose [3] [nmol/kg] | inhibition at 16 h [3] [%]
– | – | O=C(Nc1c(Cl)cncc1Cl)c1ccc(OC(F)F)c(OCC2CC2)c1 [roflumilast] | inhibits lung inflammation and emphysema | 36 | approximately 50 mL | about 15% | – | – | –
– | – | COc1ccc([C@H](Cc2c(Cl)c[n+]([O-])cc2Cl)OC(=O)c2ccc(CNC(C(=O)OC[C@H]3CCN(C)C3)c3ccccc3)s2)cc1OC (stereo partly drawn) [Example 78, [(1S)-2-(3,5-dichloro-1-oxido-pyridin-1-ium-4-yl)-1-(3,4-dimethoxyphenyl)ethyl] 5-[[[2-[[(3S)-1-methylpyrrolidin-3-yl]methoxy]-2-oxo-1-phenyl-ethyl]amino]methyl]thiophene-2-carboxylate] | – | – | – | – | 1 to 10 | 30 | 51
0.3 | 0.5 | COc1ccc([C@H](Cc2c(Cl)c[n+]([O-])cc2Cl)OC(=O)c2ccc(CNC(C(=O)OC3CCN(C)CC3)c3ccccc3)s2)cc1OC (single isomer, unassigned) [Example 87c, reference compound] | – | – | – | – | – | 30 | <10
– | – | COc1ccc([C@H](Cc2c(Cl)c[n+]([O-])cc2Cl)OC(=O)c2ccc(CNC(C(=O)OCC3CCN(C)CC3)c3ccccc3)s2)cc1OC (stereo partly drawn) [Example 87, [(1S)-2-(3,5-dichloro-1-oxido-pyridin-1-ium-4-yl)-1-(3,4-dimethoxyphenyl)ethyl] 5-[[[2-[(1-methyl-4-piperidyl)methoxy]-2-oxo-1-phenyl-ethyl]amino]methyl]thiophene-2-carboxylate] | – | – | – | – | – | 10 | >90
0.23 | 0.45 | COc1ccc([C@H](Cc2c(Cl)c[n+]([O-])cc2Cl)OC(=O)c2ccc(CNC(CO)(C(=O)OC3CCN(C)CC3)c3ccccc3)s2)cc1OC (single isomer, unassigned) [Example 105c, reference compound] | – | – | – | – | – | 10 | 35
– | – | COc1ccc([C@H](Cc2c(Cl)c[n+]([O-])cc2Cl)OC(=O)c2ccc(CNC(CO)(C(=O)OCC3CCN(C)CC3)c3ccccc3)s2)cc1OC (stereo partly drawn) [Example 105, [(1S)-2-(3,5-dichloro-1-oxido-pyridin-1-ium-4-yl)-1-(3,4-dimethoxyphenyl)ethyl] 5-[[[1-(hydroxymethyl)-2-[(1-methyl-4-piperidyl)methoxy]-2-oxo-1-phenyl-ethyl]amino]methyl]thiophene-2-carboxylate] | – | – | – | – | – | 30 | 88
0.54 | 1.08 | COc1ccc([C@H](Cc2c(Cl)c[n+]([O-])cc2Cl)OC(=O)c2ccc(CNC(C(=O)O[C@H]3CCN(C)C3)c3ccccc3)s2)cc1OC (single isomer, unassigned) [Example 78c, reference compound] | – | – | – | – | – | 100 | 26
